Laboratory results reported in ChEMBL document CHEMBL5724914, “Linking interpersonal differences in gut microbiota composition and drug biotransformation activity” (2024).

What was measured:
[1] = human gut metagenome, 24 h, 2 µM
[2] = The drug is tested on Z-022 corresponding to mouse gut metagenome with ENA study accession number: PRJEB37062 and ENA sample accession number: ERS12561821 for biotransformation under anaerobic condition. The drug concentrations were measured over 9 timepoints collected between 0 and 24 hours of incubation by liquid-chromatography-coupled mass spectrometry (LC–MS); settings: 2 µM
[3] = The drug is tested on WLS-098 corresponding to human gut metagenome with ENA study accession number: PRJEB37062 and ENA sample accession number: ERS12561754 for biotransformation under anaerobic condition. The drug concentrations were measured over 9 timepoints collected between 0 and 24 hours of incubation by liquid-chromatography-coupled mass spectrometry (LC–MS); settings: 2 µM
[4] = human gut metagenome, 24 h, 2 µM; remark: listed apart in the source
[5] = human gut metagenome, 24 h, 2 µM; remark: listed apart in the source
[6] = The drug is tested on WLS-350 corresponding to human gut metagenome with ENA study accession number: PRJEB37062 and ENA sample accession number: ERS12561789 for biotransformation under anaerobic condition. The drug concentrations were measured over 9 timepoints collected between 0 and 24 hours of incubation by liquid-chromatography-coupled mass spectrometry (LC–MS); settings: 2 µM
[7] = The drug is tested on Z-030 corresponding to mouse gut metagenome with ENA study accession number: PRJEB37062 and ENA sample accession number: ERS12561829 for biotransformation under anaerobic condition. The drug concentrations were measured over 9 timepoints collected between 0 and 24 hours of incubation by liquid-chromatography-coupled mass spectrometry (LC–MS); settings: 2 µM
[8] = human gut metagenome, 24 h, 2 µM; remark: listed apart in the source
[9] = The drug is tested on Z-017 corresponding to mouse gut metagenome with ENA study accession number: PRJEB37062 and ENA sample accession number: ERS12561816 for biotransformation under anaerobic condition. The drug concentrations were measured over 9 timepoints collected between 0 and 24 hours of incubation by liquid-chromatography-coupled mass spectrometry (LC–MS); settings: 2 µM
[10] = human gut metagenome, 24 h, 2 µM; remark: listed apart in the source
[11] = The drug is tested on WLS-006 corresponding to human gut metagenome with ENA study accession number: PRJEB37062 and ENA sample accession number: ERS12561741 for biotransformation under anaerobic condition. The drug concentrations were measured over 9 timepoints collected between 0 and 24 hours of incubation by liquid-chromatography-coupled mass spectrometry (LC–MS); settings: 2 µM
[12] = The drug is tested on WLS-073 corresponding to human gut metagenome with ENA study accession number: PRJEB37062 and ENA sample accession number: ERS12561749 for biotransformation under anaerobic condition. The drug concentrations were measured over 9 timepoints collected between 0 and 24 hours of incubation by liquid-chromatography-coupled mass spectrometry (LC–MS); settings: 2 µM
[13] = human gut metagenome, 24 h, 2 µM; remark: listed apart in the source
[14] = The drug is tested on Z-001 corresponding to mouse gut metagenome with ENA study accession number: PRJEB37062 and ENA sample accession number: ERS12561801 for biotransformation under anaerobic condition. The drug concentrations were measured over 9 timepoints collected between 0 and 24 hours of incubation by liquid-chromatography-coupled mass spectrometry (LC–MS); settings: 2 µM
[15] = The drug is tested on Z-025 corresponding to rabbit gut metagenome with ENA study accession number: PRJEB37062 and ENA sample accession number: ERS12561824 for biotransformation under anaerobic condition. The drug concentrations were measured over 9 timepoints collected between 0 and 24 hours of incubation by liquid-chromatography-coupled mass spectrometry (LC–MS); settings: 2 µM
[16] = human gut metagenome, 24 h, 2 µM; remark: listed apart in the source
[17] = The drug is tested on WLS-038 corresponding to human gut metagenome with ENA study accession number: PRJEB37062 and ENA sample accession number: ERS12561745 for biotransformation under anaerobic condition. The drug concentrations were measured over 9 timepoints collected between 0 and 24 hours of incubation by liquid-chromatography-coupled mass spectrometry (LC–MS); settings: 2 µM
[18] = human gut metagenome, 24 h, 2 µM; remark: listed apart in the source
[19] = The drug is tested on WLS-240 corresponding to human gut metagenome with ENA study accession number: PRJEB37062 and ENA sample accession number: ERS12561773 for biotransformation under anaerobic condition. The drug concentrations were measured over 9 timepoints collected between 0 and 24 hours of incubation by liquid-chromatography-coupled mass spectrometry (LC–MS); settings: 2 µM
[20] = The drug is tested on Z-005 corresponding to metagenome with ENA study accession number: PRJEB37062 and ENA sample accession number: ERS12561805 for biotransformation under anaerobic condition. The drug concentrations were measured over 9 timepoints collected between 0 and 24 hours of incubation by liquid-chromatography-coupled mass spectrometry (LC–MS); settings: 2 µM
Also: call rule not given here.

| SMILES | Bacterial Biotransformation [1] | Bacterial Biotransformation [2] | Bacterial Biotransformation [3] | Bacterial Biotransformation [4] | Bacterial Biotransformation [5] | Bacterial Biotransformation [6] | Bacterial Biotransformation [7] | Bacterial Biotransformation [8] | Bacterial Biotransformation [9] | Bacterial Biotransformation [10] | Bacterial Biotransformation [11] | Bacterial Biotransformation [12] | Bacterial Biotransformation [13] | Bacterial Biotransformation [14] | Bacterial Biotransformation [15] | Bacterial Biotransformation [16] | Bacterial Biotransformation [17] | Bacterial Biotransformation [18] | Bacterial Biotransformation [19] | Bacterial Biotransformation [20] |
| --- | --- | --- | --- | --- | --- | --- | --- | --- | --- | --- | --- | --- | --- | --- | --- | --- | --- | --- | --- | --- |
| O=C(O)c1cc(/N=N/c2ccc(S(=O)(=O)Nc3ccccn3)cc2)ccc1O [SULFASALAZINE] | Compound metabolized | Compound metabolized | Compound metabolized | Compound metabolized | Compound metabolized | Compound metabolized | Compound metabolized | Compound metabolized | Compound metabolized | Compound metabolized | Compound metabolized | Compound metabolized | Compound metabolized | Compound metabolized | Compound metabolized | Compound metabolized | Compound metabolized | Compound metabolized | Compound metabolized | Compound metabolized |
| CC(C)NCC(O)COc1ccc(CC(N)=O)cc1 (stereo not given) [ATENOLOL] | Compound NOT metabolized | Compound NOT metabolized | Compound metabolized | Compound NOT metabolized | Compound metabolized | Compound NOT metabolized | Compound NOT metabolized | Compound NOT metabolized | Compound NOT metabolized | Compound metabolized | Compound NOT metabolized | Compound NOT metabolized | Compound NOT metabolized | Compound NOT metabolized | Compound NOT metabolized | Compound NOT metabolized | Compound NOT metabolized | Compound NOT metabolized | Compound NOT metabolized | Compound NOT metabolized |
| C[C@@H](c1ncncc1F)[C@](O)(Cn1cncn1)c1ccc(F)cc1F [VORICONAZOLE] | Compound metabolized | Compound metabolized | Compound metabolized | Compound metabolized | Compound metabolized | Compound metabolized | Compound NOT metabolized | Compound metabolized | Compound NOT metabolized | Compound metabolized | Compound metabolized | Compound metabolized | Compound metabolized | Compound NOT metabolized | Compound NOT metabolized | Compound metabolized | Compound metabolized | Compound metabolized | Compound metabolized | Compound metabolized |
